# Test results taken from patent US10413583B2, “Synthetic substrates for enzymes that catalyze reactions of modified cysteines and related methods” (The University of Chicago, priority 2016, dated 2019).
# Key:
# HEPG2 cells [1] = experiment: Fluorescence imaging of RDP-1 with HEPG2 cells (PalmB, palmitate); type: cell-based, human; details: palmitate pretreatment for 6 hours
# Description: HEPG2 were plated with […] of DMEM (Gibco, Gaithersburg, Md., United States of America; High Glucose, Glutamax, 10% FBS) a four well chambered imaging dish (D35C4-20-1.5-N, Cellvis, Mountain View, Calif., United States of America) which were precoated with 4 μg Poly-D-lysine (30-70 KDa, Alfa Aesar, Haverhill, Mass., United States of America) for 2 h at room temperature or overnight at 4° C. and grown to ca. 80% confluence prior to imaging. 30 min before the addition of the RDP, the cell culture media was removed and cells were washed with 500 μL of serum-free DMEM (Gibco, Gaithersburg, Md., United States of America; High Glucose, Glutamax, no FBS). The media was then replaced with 500 μL of serum-free DMEM containing 100 nM Mitotracker Deep Red (Thermo Fisher Scientific, Waltham, Mass., United States of America) to assist in focusing and processing) and either 0.1% DMSO carrier as a control or Palm B in DMSO and incubated for 30 min at 37° C. and 5% CO2. The media was removed, the cells were washed with 500 μL of Live Cell Imaging Solution (Thermo Fisher Scientific, Waltham, Mass., United States of America), and 500 μL of 1 μM RDP-1 along with the Palm B or DMSO as control in Live Cell Imaging Solution was added to each well. […]
# HEPG2 cells [2] = experiment: Epifluorescent imaging of DPP-5 and diacetyl rhodol in HepG2 cells (PalmB, ML348, ML349, palmitate); type: cell-based, human; details: 1 mM palmitate for 6 hours post-starvation
# Description: 250,000 HEK293T cells/well, 120,000 HeLa cells/well, or 100,000 HepG2 cells/well were plated in 700 μL DMEM glutamax (10% FBS+1% P/S) into 4-well chambered imaging dish (D35C4-20-1.5-N, Cellvis, Mountain View, Calif., United States of America), which were precoated with 5 μg Poly-D-lysine (30-70 KDa, Alfa Aesar, Haverhill, Mass., United States of America) for 2 h. After 20-24 h, the media was replaced by 1 μM Hoechst 33342 and DMSO/5 μM PalmB in 400 μL DMEM glutamax. After 30 min of incubation at 37° C., the cells were washed with 400 μL of Live Cell Imaging Solution and replaced by 1 μM DPP-5 with DMSO or 5 μM of PalmB in Live Cell Imaging Solution. After 20 min of incubation at 37° C., images were obtained on an inverted epifluorescence microscope (Olympus IX83; Olympus Corporation, Tokyo, Japan) attached with EMCCD camera (Photometrics EVOLVE™ Delta, Photometrics, Tucson, Ariz., United States of America) with 40× oil objective (N/A 1.3) for DPP-5 (excitation filter 500/20, dichroic chroma 89007, emission filter 535/30), Hoechst 33342 (excitation filter 402/15, emission filter 455/50, dichroic chroma 89013), and brightfield. Analyses were performed in ImageJ. For data analysis, the average fluorescence intensity per image in each experimental condition was obtained by selecting ROI in Brightfield and applying that to the corresponding DPP-5 image, average background fluorescence intensity was subtracted and data was normalized to the average fluorescence intensity of the DMSO control. Each experiment was repeated in at least two biological replicates with identical results.
# 16,000 HepG2 cells/well were plated in 100 μL DMEM glutamax (10% fetal bovine serum (FBS)) into 4 wells of a 96-well chambered imaging dish (P96-1-N, Cellvis, Mountain View Calif., United States of America), which were precoated with 0.7 μg Poly-D-lysine (30-70 KDa, Alfa Aesar, Haverhill, Mass., United States of America) for 2 hrs. After 24 h, cells were washed with Live Cell Imaging Solution and replaced by 1 μM Hoechst 33342 and DMSO/10 μM ML348/10 μM ML349/10 μM of both ML348 and ML349 in 100 μL DMEM glutamax. After 30 min of incubation at 37° C., the cells were washed with 100 μL of Live Cell Imaging Solution and replaced by 1 μM DPP-5 in Live Cell Imaging Solution. After 20 min of incubation at 37° C., images were obtained on an inverted epifluorescence microscope (Leica DMi8; Leica Microsystems, Wetzlar, Germany) equipped with a camera (Hamamatsu Orca-Flash 4.0; Hamamatsu, Hamamatsu City, Japan) with 63× oil objective (N/A 1.4) and light source (Sutter Lamda XL, 300 W Xenon; Sutter Instrument, Novato, Calif., United States of America) for DPP-5 (YFP filter cube 1525306), Hoechst 33342 (DAPI filter cube), and brightfield using Leica LASX software (Leica Microsystems, Wetzlar, Germany). Analyses were performed in ImageJ. Each experiment was repeated in three biological replicates and 8-12 images were considered for plotting bar graphs for quantification. For detailed data analysis, the average fluorescence intensity per image in each experimental condition was obtained by selecting ROI in Brightfield and applying that to the corresponding DPP-5 image, average background fluorescence intensity was subtracted and data was normalized to the average fluorescence intensity of the control experiment. […] 250,000 HEK293T cells/well were plated in 700 μL DMEM glutamax (10% FBS+1% P/S) into three wells of a 4-well chambered imaging dish (D35C4-20-1.5-N, Cellvis, Mountain View, Calif., United States of America), which were precoated with 5 μg Poly-Dlysine (30-70 KDa, Alfa Aesar, Haverhill, Mass., United States of America) for 2 h. After 18 h, the media was replaced by 1 μM Hoechst 33342 in 400 μL DMEM glutamax. […] After 20 min of incubation at 37° C., images were obtained and analyzed as described above. […]
structure (smiles),measurement,setting,value
"CCCCCCCCCCCCCCCC(=O)[O-].[Na+] [palmitate, sodium palmitate]",effect on APT activity as measured by RDP-1,HEPG2 cells [1],a decrease in APT activity
same,increase in intensity of S-depalmitoylase signal as measured by DPP-5,HEPG2 cells [2],~50%
